In ChEMBL document CHEMBL1201862, “PubChem BioAssay data set” (2004):
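Cells were grown in 96-well plates and exposed to each compound for 48 hours at five concentrations; endpoints were interpolated linearly between bracketing concentrations, or set to the highest concentration if not reached. GI50 marks 50% less growth.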 Active and inactive are the calls of the source. Rule as the data show it: active = GI50 up to about 1.1 µM and inactive = higher.

Assays:
Assay in all cases: NCI tumour cell line growth inhibition, 48 h
SF-295 = tested on: SF-295
SNB-75 = tested on: SNB-75
HOP-92 = tested on: HOP-92
IGROV-1 = tested on: IGROV-1
CAKI-1 = tested on: CAKI-1
HCT-15 = tested on: HCT-15
ACHN = tested on: ACHN
NCI-H522 = tested on: NCI-H522
OVCAR-3 = tested on: OVCAR-3
SW-620 = tested on: SW-620
TK-10 = tested on: TK-10
SN12C = tested on: SN12C
SR = tested on: SR
UACC-62 = tested on: UACC-62
SNB-19 = tested on: SNB-19
RPMI-8226 = tested on: RPMI-8226

| SMILES | GI50 (SF-295) | GI50 (SNB-75) | GI50 (HOP-92) | GI50 (IGROV-1) | GI50 (CAKI-1) | GI50 (HCT-15) [µM] | GI50 (ACHN) | GI50 (NCI-H522) | GI50 (OVCAR-3) | GI50 (SW-620) | GI50 (TK-10) | GI50 (SN12C) | GI50 (SR) | GI50 (UACC-62) | GI50 (SNB-19) | GI50 (RPMI-8226) |
| --- | --- | --- | --- | --- | --- | --- | --- | --- | --- | --- | --- | --- | --- | --- | --- | --- |
| COc1cc(Nc2nc3cc(C(F)(F)F)ccc3nc2-c2ccccc2)cc(OC)c1OC | 54.6 µM (inactive) | 39.7 µM (inactive) | 1.82 µM (inactive) | 27 µM (inactive) | < 0.01 µM (active) | > 100 | 65.5 µM (inactive) | 37.8 µM (inactive) | 73.3 µM (inactive) | > 100 µM (inactive) | 30.5 µM (inactive) | > 100 µM (inactive) | > 100 µM (inactive) | 75.2 µM (inactive) | – | – |
| CSC1CC2C(CC1(C)SC)C2(C)C (configuration not stated) | 30.8 µM (inactive) | 23.2 µM (inactive) | 16.3 µM (inactive) | 42.8 µM (inactive) | > 100 µM (inactive) | 51.3 | > 100 µM (inactive) | > 100 µM (inactive) | 37.9 µM (inactive) | > 100 µM (inactive) | > 100 µM (inactive) | – | 30.8 µM (inactive) | 60.7 µM (inactive) | 46.9 µM (inactive) | 24.3 µM (inactive) |
| CCN1C(=O)/C(=C\c2coc3ccccc3c2=O)SC1=S | 42 µM (inactive) | 41.2 µM (inactive) | > 100 µM (inactive) | > 100 µM (inactive) | > 100 µM (inactive) | 39.1 | > 100 µM (inactive) | 91.4 µM (inactive) | > 100 µM (inactive) | 49.4 µM (inactive) | > 100 µM (inactive) | > 100 µM (inactive) | 36.6 µM (inactive) | 68.7 µM (inactive) | > 100 µM (inactive) | > 100 µM (inactive) |
| Sc1nnc(-c2ccccc2)n1/N=C\c1ccc(-c2ccc(Cl)cc2)o1 | > 100 µM (inactive) | > 100 µM (inactive) | > 100 µM (inactive) | > 100 µM (inactive) | – | – | > 100 µM (inactive) | > 100 µM (inactive) | > 100 µM (inactive) | > 100 µM (inactive) | > 100 µM (inactive) | – | > 100 µM (inactive) | > 100 µM (inactive) | > 100 µM (inactive) | > 100 µM (inactive) |
| NC(=O)/N=C1\NC(Cc2ccccc2)C(=O)N1Cc1ccccc1 (configuration not stated) | > 100 µM (inactive) | 89.9 µM (inactive) | – | > 100 µM (inactive) | – | > 100 | 80.4 µM (inactive) | – | > 100 µM (inactive) | > 100 µM (inactive) | > 100 µM (inactive) | > 100 µM (inactive) | > 100 µM (inactive) | > 100 µM (inactive) | > 100 µM (inactive) | > 100 µM (inactive) |
| CC(=O)OCC12CC(CC1OC(C)=O)c1ccccc12 (configuration not stated) | > 100 µM (inactive) | – | > 100 µM (inactive) | > 100 µM (inactive) | > 100 µM (inactive) | > 100 | > 100 µM (inactive) | – | > 100 µM (inactive) | > 100 µM (inactive) | > 100 µM (inactive) | > 100 µM (inactive) | > 100 µM (inactive) | > 100 µM (inactive) | > 100 µM (inactive) | > 100 µM (inactive) |
| COc1ccc(/C(=C/n2ccnc2)C(O)c2ccc(OC)c(OC)c2)cc1OC (configuration not stated) | > 100 µM (inactive) | 51.9 µM (inactive) | 30.6 µM (inactive) | > 100 µM (inactive) | – | > 100 | – | – | > 100 µM (inactive) | > 100 µM (inactive) | > 100 µM (inactive) | > 100 µM (inactive) | 12.3 µM (inactive) | – | > 100 µM (inactive) | 70.6 µM (inactive) |
| CN(C)CCC(CCN(C)C)=NO | > 100 µM (inactive) | > 100 µM (inactive) | – | > 100 µM (inactive) | > 100 µM (inactive) | > 100 | > 100 µM (inactive) | > 100 µM (inactive) | > 100 µM (inactive) | > 100 µM (inactive) | > 100 µM (inactive) | > 100 µM (inactive) | – | > 100 µM (inactive) | > 100 µM (inactive) | > 100 µM (inactive) |
| CN(C)CC1CCCC/C1=N/OC(=O)c1ccc(Cl)c(Cl)c1 (configuration not stated) | > 100 µM (inactive) | 33.3 µM (inactive) | 66.5 µM (inactive) | > 100 µM (inactive) | > 100 µM (inactive) | > 100 | > 100 µM (inactive) | > 100 µM (inactive) | > 100 µM (inactive) | > 100 µM (inactive) | > 100 µM (inactive) | > 100 µM (inactive) | > 100 µM (inactive) | > 100 µM (inactive) | – | > 100 µM (inactive) |
| COc1cc(-c2cc(=O)c3cc(C)c(C)c(C(=O)O)c3o2)cc(OC)c1OC | > 100 µM (inactive) | 2.32 µM (inactive) | > 100 µM (inactive) | > 100 µM (inactive) | – | > 100 | > 100 µM (inactive) | 67.6 µM (inactive) | > 100 µM (inactive) | > 100 µM (inactive) | > 100 µM (inactive) | > 100 µM (inactive) | – | > 100 µM (inactive) | > 100 µM (inactive) | > 100 µM (inactive) |
| CC1=NC(C(C)C)C(=O)O1 (configuration not stated) | > 100 µM (inactive) | > 100 µM (inactive) | > 100 µM (inactive) | > 100 µM (inactive) | > 100 µM (inactive) | 34.4 | > 100 µM (inactive) | > 100 µM (inactive) | > 100 µM (inactive) | 13.1 µM (inactive) | > 100 µM (inactive) | > 100 µM (inactive) | – | > 100 µM (inactive) | > 100 µM (inactive) | 22.1 µM (inactive) |
| S=C1OC2CCCC[C@H]2O1 (some centres not stated) | > 100 µM (inactive) | > 100 µM (inactive) | > 100 µM (inactive) | > 100 µM (inactive) | > 100 µM (inactive) | – | > 100 µM (inactive) | > 100 µM (inactive) | > 100 µM (inactive) | > 100 µM (inactive) | > 100 µM (inactive) | > 100 µM (inactive) | > 100 µM (inactive) | > 100 µM (inactive) | > 100 µM (inactive) | > 100 µM (inactive) |
| Cc1ccc2ccc(-c3ccccc3)c3c2c1C(=O)c1ccccc1C3=O | 93.1 µM (inactive) | 18.3 µM (inactive) | 26.1 µM (inactive) | > 100 µM (inactive) | – | – | 58.5 µM (inactive) | 36.1 µM (inactive) | 71.8 µM (inactive) | > 100 µM (inactive) | > 100 µM (inactive) | > 100 µM (inactive) | > 100 µM (inactive) | 92.7 µM (inactive) | 64.1 µM (inactive) | > 100 µM (inactive) |
| Cc1c2ncccc2c(C)c2c1[nH]c1ccccc12 | 8.57 µM (inactive) | 10.6 µM (inactive) | 7.98 µM (inactive) | 12.3 µM (inactive) | 9.23 µM (inactive) | 7.24 | 12.9 µM (inactive) | 13 µM (inactive) | 14.3 µM (inactive) | 6.79 µM (inactive) | 17.7 µM (inactive) | 11.5 µM (inactive) | – | 15.3 µM (inactive) | 13.8 µM (inactive) | 6.59 µM (inactive) |
| O=C(O)C(CS)Nc1c2ccccc2[n+]([O-])c2ccccc12 (configuration not stated) | > 100 µM (inactive) | > 100 µM (inactive) | – | > 100 µM (inactive) | > 100 µM (inactive) | > 100 | > 100 µM (inactive) | 56.9 µM (inactive) | > 100 µM (inactive) | > 100 µM (inactive) | > 100 µM (inactive) | > 100 µM (inactive) | – | > 100 µM (inactive) | > 100 µM (inactive) | 29.1 µM (inactive) |
| CCOC(=O)C(Cc1cn(S(=O)(=O)c2ccccc2)c2ccccc12)(NC(C)=O)C(=O)OCC | 29.1 µM (inactive) | 8.18 µM (inactive) | 19.8 µM (inactive) | 46.7 µM (inactive) | 49.1 µM (inactive) | 42.5 | 32.3 µM (inactive) | 15.3 µM (inactive) | 34 µM (inactive) | 54.2 µM (inactive) | 65.5 µM (inactive) | – | 15.2 µM (inactive) | 27.9 µM (inactive) | 34.8 µM (inactive) | 13.1 µM (inactive) |
| C=C(C)CC(C(=O)O)c1ccc(C)cc1 (configuration not stated) | > 100 µM (inactive) | > 100 µM (inactive) | > 100 µM (inactive) | > 100 µM (inactive) | > 100 µM (inactive) | > 100 | > 100 µM (inactive) | – | > 100 µM (inactive) | > 100 µM (inactive) | > 100 µM (inactive) | > 100 µM (inactive) | > 100 µM (inactive) | > 100 µM (inactive) | > 100 µM (inactive) | > 100 µM (inactive) |
| CC1C(c2ccccc2)=CCON1c1ccccc1 (configuration not stated) | > 100 µM (inactive) | > 100 µM (inactive) | – | > 100 µM (inactive) | > 100 µM (inactive) | > 100 | > 100 µM (inactive) | > 100 µM (inactive) | > 100 µM (inactive) | > 100 µM (inactive) | – | > 100 µM (inactive) | > 100 µM (inactive) | > 100 µM (inactive) | > 100 µM (inactive) | > 100 µM (inactive) |
| O=C(O)c1ccccc1NS(=O)(=O)c1ccc(Cl)cc1 | – | > 100 µM (inactive) | 19 µM (inactive) | > 100 µM (inactive) | > 100 µM (inactive) | > 100 | > 100 µM (inactive) | 54 µM (inactive) | – | > 100 µM (inactive) | > 100 µM (inactive) | > 100 µM (inactive) | – | > 100 µM (inactive) | > 100 µM (inactive) | > 100 µM (inactive) |
| CCCC(=O)c1c(NOC2OC(COC(C)=O)C(OC(C)=O)C(OC(C)=O)C2OC(C)=O)nc(OC)n(C)c1=O (configuration not stated) | > 100 µM (inactive) | > 100 µM (inactive) | – | > 100 µM (inactive) | – | > 100 | > 100 µM (inactive) | > 100 µM (inactive) | – | > 100 µM (inactive) | > 100 µM (inactive) | > 100 µM (inactive) | > 100 µM (inactive) | > 100 µM (inactive) | > 100 µM (inactive) | – |
